Target: T1, hVR1 (Homo sapiens, UniProt Q8NER1)
T1 construct: expressed in transfected cells
Test: hVR1 FLIPR (Fluorometric Image Plate Reader) screening assay, IC50 determination
Format: cell-based
Settings: transfected CHO cells stably expressing hVR1
Method: 1. hVR1 FLIPR (Fluorometric Image Plate Reader) Screening Assay
Transfected CHO cells, stably expessing hVR1 (15,000 cells/well) are seeded in 50 ul media in a black clear bottom 384 plate (Greiner) and grown in a humidified incubator (37° C., 2% CO2), 24-30 hours prior to experiment.
Subsequently, the media is removed from the cell plate by inversion and 2 μM Fluo-4 is added using a multidrop (Labsystems). Following the 40 minutes dye incubation in the dark at 37° C. and 2% CO2, the extracellular dye present is washed away using an EMBLA (Scatron), leaving the cells in 40 ul of assay buffer (1×HBSS, 10 mM D-Glucose, 1 mM CaCl2, 10 mM HEPES, 10×7.5% NaHCO3 and 2.5 mM Probenecid).
FLIPR Assay—IC50 Determination Protocol
For IC50 determinations the fluorescence is read using FLIPR filter 1 (em […]). A cellular baseline recording is taken for 30 seconds, followed by a 20 μl addition of 10, titrated half-log concentrations of the test compound, yielding cellular concentration ranging from 3 μM to 0.1 nM. Data is collected every 2 seconds for a further 5 minutes prior to the addition of a VR1 agonist solution: either 50 nM solution of capsaicin or MES (2-[N-morpholino) ethanesulfonic acid) buffer (pH 5.2), by the FLIPR pipettor. The FLIPR continues to collect data for a further 4 minutes. Compounds having antagonistic properties against the hVR1 will inhibit the increase in intracellular calcium in response to the capsaicin addition. This consequently leading to a reduction in fluorescence signal and providing a reduced fluorescence reading, compared with no compound, buffer controls. Data is exported by the FLIPR program as a sum of fluorescence calculated under the curve upon the addition of capsaicin. Maximum inhibition, Hill slope and IC50 data for each compound are generated.

T1 sequence (Q8NER1 whole entry): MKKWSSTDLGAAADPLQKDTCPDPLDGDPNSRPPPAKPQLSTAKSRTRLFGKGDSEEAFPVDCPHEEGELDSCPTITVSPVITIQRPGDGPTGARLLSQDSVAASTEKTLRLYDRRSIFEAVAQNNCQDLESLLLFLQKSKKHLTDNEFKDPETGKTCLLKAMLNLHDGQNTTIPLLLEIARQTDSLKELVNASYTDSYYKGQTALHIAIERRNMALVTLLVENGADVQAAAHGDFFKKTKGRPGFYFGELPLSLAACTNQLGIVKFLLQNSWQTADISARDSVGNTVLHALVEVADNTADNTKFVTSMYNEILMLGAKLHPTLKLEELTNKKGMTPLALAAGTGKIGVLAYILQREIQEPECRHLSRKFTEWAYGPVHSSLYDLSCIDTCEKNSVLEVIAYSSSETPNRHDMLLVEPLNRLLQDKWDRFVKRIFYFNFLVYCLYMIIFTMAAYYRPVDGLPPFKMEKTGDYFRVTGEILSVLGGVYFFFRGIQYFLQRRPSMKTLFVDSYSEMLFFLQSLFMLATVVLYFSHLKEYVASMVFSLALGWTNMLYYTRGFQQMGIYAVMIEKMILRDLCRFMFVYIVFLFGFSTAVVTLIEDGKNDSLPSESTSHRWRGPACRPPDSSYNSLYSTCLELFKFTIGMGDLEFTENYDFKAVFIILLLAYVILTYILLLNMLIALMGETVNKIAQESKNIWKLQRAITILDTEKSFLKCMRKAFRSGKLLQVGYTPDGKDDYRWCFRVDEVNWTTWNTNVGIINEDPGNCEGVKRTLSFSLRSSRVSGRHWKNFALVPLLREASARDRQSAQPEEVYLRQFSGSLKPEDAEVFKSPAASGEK

IC50 (agonist H+/MES buffer (pH 5.2)) [nM] | IC50 (agonist capsaicin) [nM] | SMILES
45 | 50 | CC(C)Oc1ccc(C(=O)Nc2ccc3sc(CO)nc3c2)cc1 [Example 19, N-[2-(Hydroxymethyl)-1,3-benzothiazol-5-yl]-4-isopropoxybenzamide]
 | 200 | CC(O)c1nc2cc(NC(=O)c3ccc(C(C)(C)C)cc3)ccc2s1 (centres unmarked) [Example 71, 4-tert-Butyl-N-[2-(1-hydroxyethyl)-1,3-benzothiazol-5-yl]benzamide]
60 | 10 | O=C(Nc1ccc2sc(CO)nc2c1)c1ccc(Br)cc1 [Example 2, 4-Bromo-N-[2-(hydroxymethyl)-1,3-benzothiazol-5-yl]benzamide]

— patent US20060223868A1, “Heterocyclic amides exhibiting and inhibitory activity at the vanilloid receptor 1(vr1)” (AstraZeneca AB, priority 2003, published 2006)
